The values that follow come from patent US12516131B2, “Methods for preventing acute kidney injury” (University of Maryland, Baltimore, priority 2018, dated 2026).

Like-named read-outs stand apart in the source and are kept apart here.

The nature of data set [1]: Lability of reconstituted/diluted DIGIFAB (ouabain binding capacity after storage), protection by E-64. In kind it is physicochemical. The following applies: E-64 at final concentration 1 μM in diluted DIGIFAB.
Source text: To maintain the immuno-neutralizing activity of stored dilute DIGIFAB samples, we tested the effect of the irreversible protease (primarily papain) inhibitor, E-64.
For data set [2] the following is noted: rats, cited from earlier work.
The test system of data set [3] is renal ischemia/reperfusion (RIR) in Wistar rats. Description: Example 1: plasma creatinine in rats following renal ischemia/reperfusion (45 min bilateral renal pedicle clamping). As to conditions: Ouabain infusion (10 μg/kg/day) / Saline injection; n=9; ±SE. In kind it is in vivo, rat. As for the experimental part: FIG. 7. Effect of DIGIFAB on plasma creatinine in rats following renal ischemia/reperfusion (RIR). Normal male Wistar rats were implanted on “Day 0” with a subcutaneous minipump to deliver ouabain (10 μg/kg/day: open symbols) or vehicle (6 μl/day; solid symbols). Beginning on Day 13, half of the ouabain-infused rats and half of the vehicle-infused rats were injected with DigiFab (triangles), and the remainder (circles) were injected with an equal volume of saline: The DigiFab-treated rats received 0.2 ml DigiFab (10 mg/ml) at 15 hr and 6 hr, and 0.1 ml DigiFab 1 hr pre-operatively. […] Plasma creatinine was measured with a commercial creatinine enzymatic assay kit. […] The subsequent decline toward baseline (measured at 72 hrs; i.e., Day 17) was more rapid (i.e., the slope was steeper) in the DigiFab-injected rats than in the saline-injected rats. […]
Male Wistar ICS rats (˜300 g) on normal diet were implanted on “Day 0” with a subcutaneous minipump to deliver ouabain—see FIG. 7—(10 μg/kg/day; open symbols) or vehicle (6 μl/day; solid symbols). […] Plasma creatinine was measured after ultrafiltration with 10K filters using a slightly modified rat creatinine enzymatic assay kit (Crystal Chem, Inc., Elk Grove Village, IL). […] The subsequent decline toward baseline (measured at 72 hrs; i.e., Day 17) was more rapid (i.e., the slope was steeper) in the DigiFab-injected rats than in the saline-injected rats. […]

For data set [4], the system named is ischemia-induced renal injury. As to conditions: somewhat similar rat model; cited from earlier work.

For `CC(C)C[C@H](NC(=O)[C@H]1C[C@@H]1C(=O)O)C(=O)NCCCCNC(=N)N` [E-64, (1S,2S)-2-(((S)-1-((4-guanidinobutyl)amino)-4-methyl-1-oxopentan-2-yl)carbamoyl)cyclopropanecarboxylic acid], the “effect of E-64 on stability of DIGIFAB's ouabain binding capacity” value in data set [1] was “markedly improved the stability”.
Regarding `C[C@@H]1O[C@@H](O[C@H]2C[C@@H](O)[C@]3(CO)[C@H]4[C@H](O)C[C@]5(C)[C@@H](C6=CC(=O)OC6)CC[C@]5(O)[C@@H]4CC[C@]3(O)C2)[C@H](O)[C@H](O)[C@H]1O` [Ouabain], the “steady state plasma level” value in data set [2] (ouabain infused chronically at 3 μg/Kg/24 hr) was approximately 1.95 nM; in data set [2] (ouabain infused chronically at 10 μg/Kg/24 hr), approximately 2.2 nM; in data set [2] (ouabain infused chronically at 30 μg/Kg/24 hr), approximately 4.8 nM. For the same compound, the “Percent Recovery of plasma creatinine toward baseline, 24 to 72 hrs post-op” value in data set [3] stood at 38.6±17.5%.
As to `C[C@]12CC[C@H](O)C[C@H]1CC[C@@H]1[C@@H]2CC[C@]2(C)[C@@](O)(c3ccoc3)CC[C@]12O` [rostafuroxin], in data set [4], the “effect on ischemia-induced renal injury” value was “attenuated ischemia-induced renal injury”.
